Data as given in ChEMBL document CHEMBL1201862, “PubChem BioAssay data set” (2004).
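96-well plates; 48 h exposure; 5 concentrations. Endpoints by linear interpolation between flanking doses. Not reached: highest tested concentration assigned. GI50 is the concentration that inhibits growth by half.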 Active and inactive are the calls of the source. No stated cut-off is given here; in the data, active = GI50 up to about 1.1 µM and inactive = higher.

How the values were obtained:
Assay in all cases: NCI tumour cell line growth inhibition, 48 h
NCI-H460 = tested on: NCI-H460
MDA-MB-435 = tested on: MDA-MB-435
HOP-62 = tested on: HOP-62
DU-145 = tested on: DU-145
SF-268 = tested on: SF-268
PC-3 = tested on: PC-3
SNB-75 = tested on: SNB-75
IGROV-1 = tested on: IGROV-1
M14 = tested on: M14
NCI-H522 = tested on: NCI-H522
Hs-578T = tested on: Hs-578T
OVCAR-8 = tested on: OVCAR-8
OVCAR-5 = tested on: OVCAR-5
Malme-3M = tested on: Malme-3M
MOLT-4 = tested on: MOLT-4
HCT-116 = tested on: HCT-116
TK-10 = tested on: TK-10
NCI/ADR-RES = tested on: NCI/ADR-RES
SW-620 = tested on: SW-620
SN12C = tested on: SN12C
HCT-15 = tested on: HCT-15
T47D = tested on: T47D
RPMI-8226 = tested on: RPMI-8226
K562 = tested on: K562
HOP-92 = tested on: HOP-92
SK-MEL-28 = tested on: SK-MEL-28
COLO 205 = tested on: COLO 205
NCI-H23 = tested on: NCI-H23
U-251 = tested on: U-251
EKVX = tested on: EKVX
SR = tested on: SR
ACHN = tested on: ACHN
MCF7 = tested on: MCF7
SF-295 = tested on: SF-295
MDA-MB-231 = tested on: MDA-MB-231
HT-29 = tested on: HT-29
UACC-62 = tested on: UACC-62
HL-60 = tested on: HL-60
CAKI-1 = tested on: CAKI-1
MDA-N = tested on: MDA-N
SK-OV-3 = tested on: SK-OV-3
786-0 = tested on: 786-0
SK-MEL-2 = tested on: SK-MEL-2
OVCAR-3 = tested on: OVCAR-3
SNB-19 = tested on: SNB-19
UO-31 = tested on: UO-31
CCRF-CEM = tested on: CCRF-CEM
LOX IMVI = tested on: LOX IMVI
UACC-257 = tested on: UACC-257
SF-539 = tested on: SF-539
A549 = tested on: A549
KM12 = tested on: KM12
A498 = tested on: A498
HCC 2998 = tested on: HCC 2998
OVCAR-4 = tested on: OVCAR-4
SK-MEL-5 = tested on: SK-MEL-5

NCCCN1CCN(CCCNc2ccc3ncn4c5ccccc5c(=O)c2c34)CC1
GI50 (NCI-H460): 1.31 µM (inactive) | GI50 (MDA-MB-435): 1.46 µM (inactive) | GI50 (HOP-62): 1.71 µM (inactive) | GI50 (DU-145): 1.46 µM (inactive) | GI50 (SF-268): 1.26 µM (inactive) | GI50 (PC-3): 1.69 µM (inactive) | GI50 (SNB-75): 3.13 µM (inactive) | GI50 (IGROV-1): 1.04 µM (active) | GI50 (M14): 2.79 µM (inactive) | GI50 (NCI-H522): 0.456 µM (active) | GI50 (Hs-578T): 3.16 µM (inactive) | GI50 (OVCAR-8): 1.87 µM (inactive) | GI50 (OVCAR-5): 3.61 µM (inactive) | GI50 (Malme-3M): 2.36 µM (inactive) | GI50 (MOLT-4): 1.11 µM (active) | GI50 (HCT-116): 1.03 µM (active) | GI50 (TK-10): 4.2 µM (inactive) | GI50 (NCI/ADR-RES): 13.7 µM (inactive) | GI50 (SW-620): 1.32 µM (inactive) | GI50 (SN12C): 0.826 µM (active) | GI50 (HCT-15): 4.4 µM | GI50 (T47D): 3.02 µM (inactive) | GI50 (RPMI-8226): 1.52 µM (inactive) | GI50 (K562): 1.09 µM (active) | GI50 (HOP-92): 1.36 µM (inactive) | GI50 (SK-MEL-28): 4.47 µM (inactive) | GI50 (COLO 205): 0.481 µM (active) | GI50 (NCI-H23): 2.51 µM (inactive) | GI50 (U-251): 1.02 µM (active) | GI50 (EKVX): 2.85 µM (inactive) | GI50 (SR): 1.21 µM (inactive) | GI50 (ACHN): 1.49 µM (inactive) | GI50 (MCF7): 1.32 µM (inactive) | GI50 (SF-295): 3.71 µM (inactive) | GI50 (MDA-MB-231): 0.783 µM (active) | GI50 (HT-29): 1.13 µM (inactive) | GI50 (UACC-62): 2.14 µM (inactive) | GI50 (HL-60): 0.861 µM (active) | GI50 (CAKI-1): 1.14 µM (inactive) | GI50 (MDA-N): 1.45 µM (inactive) | GI50 (SK-OV-3): 4.98 µM (inactive) | GI50 (786-0): 1.29 µM (inactive) | GI50 (SK-MEL-2): 2.8 µM (inactive) | GI50 (OVCAR-3): 4.07 µM (inactive) | GI50 (SNB-19): 0.887 µM (active) | GI50 (UO-31): 5.28 µM (inactive) | GI50 (CCRF-CEM): 1.41 µM (inactive) | GI50 (LOX IMVI): 0.875 µM (active) | GI50 (UACC-257): 5.97 µM (inactive) | GI50 (SF-539): 1.42 µM (inactive) | GI50 (A549): 1.95 µM (inactive) | GI50 (KM12): 3.29 µM (inactive) | GI50 (A498): 1.69 µM (inactive) | GI50 (HCC 2998): 0.789 µM (active) | GI50 (OVCAR-4): 0.728 µM (active) | GI50 (SK-MEL-5): 0.791 µM (active)

CC(CN(C)C)Nc1c2ccccc2nc2cccc([N+](=O)[O-])c12 (configuration not stated)
GI50 (NCI-H522): 0.0268 µM (active) | GI50 (HL-60): 0.203 µM (active) | GI50 (MDA-N): 0.23 µM (active)

COc1cccc(C2c3cc4c(cc3OC(N3CCOCC3)C2C)OCO4)c1OC (configuration not stated)
GI50 (NCI-H460): 7.71 µM (inactive) | GI50 (MDA-MB-435): 10 µM (inactive) | GI50 (HOP-62): 11.4 µM (inactive) | GI50 (DU-145): 3.21 µM (inactive) | GI50 (SF-268): 9.59 µM (inactive) | GI50 (PC-3): 11.3 µM (inactive) | GI50 (SNB-75): 4.88 µM (inactive) | GI50 (IGROV-1): 3.46 µM (inactive) | GI50 (M14): 9.1 µM (inactive) | GI50 (NCI-H522): 4.26 µM (inactive) | GI50 (Hs-578T): 4.26 µM (inactive) | GI50 (OVCAR-8): 5.68 µM (inactive) | GI50 (OVCAR-5): 13.1 µM (inactive) | GI50 (MOLT-4): 4.28 µM (inactive) | GI50 (HCT-116): 2.98 µM (inactive) | GI50 (TK-10): 15.5 µM (inactive) | GI50 (NCI/ADR-RES): 4.58 µM (inactive) | GI50 (SW-620): 5.4 µM (inactive) | GI50 (SN12C): 8.07 µM (inactive) | GI50 (HCT-15): 4.36 µM | GI50 (T47D): 3.2 µM (inactive) | GI50 (RPMI-8226): 6.59 µM (inactive) | GI50 (K562): 2.07 µM (inactive) | GI50 (SK-MEL-28): 13.4 µM (inactive) | GI50 (COLO 205): 9.04 µM (inactive) | GI50 (NCI-H23): 14.8 µM (inactive) | GI50 (EKVX): 18.1 µM (inactive) | GI50 (SR): 4.75 µM (inactive) | GI50 (ACHN): 5.33 µM (inactive) | GI50 (MCF7): 7.91 µM (inactive) | GI50 (SF-295): 2.84 µM (inactive) | GI50 (HT-29): 2.96 µM (inactive) | GI50 (UACC-62): 15.4 µM (inactive) | GI50 (CAKI-1): 2.02 µM (inactive) | GI50 (MDA-N): 13.7 µM (inactive) | GI50 (786-0): 5.22 µM (inactive) | GI50 (SK-MEL-2): 6.41 µM (inactive) | GI50 (OVCAR-3): 3.04 µM (inactive) | GI50 (SNB-19): 3.81 µM (inactive) | GI50 (UO-31): 7.03 µM (inactive) | GI50 (CCRF-CEM): 4.52 µM (inactive) | GI50 (LOX IMVI): 3.06 µM (inactive) | GI50 (UACC-257): 8.02 µM (inactive) | GI50 (SF-539): 10.6 µM (inactive) | GI50 (A549): 9.98 µM (inactive) | GI50 (KM12): 5.68 µM (inactive) | GI50 (HCC 2998): 10.4 µM (inactive) | GI50 (SK-MEL-5): 9.59 µM (inactive)
